{
  "source": "patent US20170209579A1",
  "about": "“NON-INVASIVE RADIOFREQUENCY FIELD TREATMENT FOR CANCER THERAPY” (Baylor College of Medicine, priority 2014, published 2017)",
  "origin": "cited, not measured here",
  "tested_on": "tumor",
  "conditions": "Monsky et al.; cited from earlier work",
  "data": [
    {"smiles": "COc1cccc2c1C(=O)c1c(O)c3c(c(O)c1C2=O)C[C@@](O)(C(=O)CO)C[C@@H]3O[C@H]1C[C@H](N)[C@H](O)[C@H](C)O1", "note": "[free doxorubicin]", "values": [
      {"measurement": "accumulation and retention in the tumor after conventional RFA", "result": "not"}
    ]}
  ]
}
